Reference: the NIST ThermoML archive (doi:10.1016/j.fluid.2008.03.004)
± gives the expanded uncertainty stated by the source.

Assay: xn = mol fraction of the nth substance listed
Conditions: 101 kPa, Liquid; for speed of sound: Sing-around technique in a fixed-path interferometer

COC(C)(C)C [2-methoxy-2-methylpropane] + Cc1ccc(C)cc1
Conditions | mass density, 295.65 K [kg/m3] | mass density, 298.15 K [kg/m3] | mass density, 300.65 K [kg/m3] | mass density, 303.15 K [kg/m3] | speed of sound, 298.15 K [m/s] | speed of sound, 300.65 K [m/s] | speed of sound, 303.15 K [m/s] | speed of sound, 305.65 K [m/s]
x1 = 0.051 | – | 851.161 ± 0.41 | 848.97 ± 0.41 | 846.775 ± 0.41 | 1296.3 ± 2.2 | 1286.1 ± 2.2 | 1275.9 ± 2.2 | 1265.7 ± 2.2
x1 = 0.111 | – | 844.568 ± 0.42 | 842.356 ± 0.42 | 840.14 ± 0.43 | 1282.7 ± 2.2 | 1272.2 ± 2.2 | 1261.8 ± 2.2 | 1251.5 ± 2.2
x1 = 0.199 | – | 834.598 ± 0.43 | 832.351 ± 0.44 | 830.102 ± 0.44 | 1260.5 ± 2.2 | 1249.9 ± 2.2 | 1239.4 ± 2.2 | 1228.9 ± 2.2
x1 = 0.297 | – | 823.534 ± 0.45 | 821.251 ± 0.45 | 818.963 ± 0.46 | 1235.5 ± 2.2 | 1224.8 ± 2.2 | 1214.2 ± 2.2 | 1203.5 ± 2.2
x1 = 0.394 | – | 812.151 ± 0.47 | 809.83 ± 0.47 | 807.503 ± 0.47 | 1209.4 ± 2.2 | 1198.7 ± 2.2 | 1187.9 ± 2.2 | 1177.3 ± 2.2
x1 = 0.5 | – | 799.359 ± 0.49 | 796.99 ± 0.49 | 794.615 ± 0.49 | 1180.1 ± 2.2 | 1169.2 ± 2.2 | 1158.4 ± 2.2 | 1147.6 ± 2.2
x1 = 0.591 | 790.564 ± 0.5 | 788.159 ± 0.5 | 785.75 ± 0.51 | 783.333 ± 0.51 | 1155.2 ± 2.2 | 1144.2 ± 2.2 | 1133.2 ± 2.2 | 1122.3 ± 2.2
x1 = 0.7 | 776.96 ± 0.52 | 774.504 ± 0.52 | 772.04 ± 0.53 | 769.567 ± 0.53 | 1124.7 ± 2.2 | 1113.5 ± 2.2 | 1102.4 ± 2.2 | 1091.3 ± 2.2
x1 = 0.799 | 763.998 ± 0.54 | 761.487 ± 0.54 | 758.97 ± 0.55 | 756.446 ± 0.55 | 1095.3 ± 2.2 | 1084 ± 2.2 | 1072.8 ± 2.2 | 1061.6 ± 2.2
x1 = 0.898 | 750.898 ± 0.56 | 748.333 ± 0.56 | 745.759 ± 0.57 | 743.176 ± 0.57 | 1066 ± 2.2 | 1054.6 ± 2.2 | 1043.3 ± 2.2 | 1031.9 ± 2.2
x1 = 0.949 | 744.102 ± 0.57 | 741.507 ± 0.57 | 738.9 ± 0.58 | 736.284 ± 0.58 | 1050.2 ± 2.2 | 1038.8 ± 2.2 | 1027.4 ± 2.2 | 1016 ± 2.2
x1 = 1 | 737.036 ± 0.56 | 734.406 ± 0.57 | 731.766 ± 0.57 | 729.112 ± 0.58 | 1036.9 ± 2.2 | 1025.4 ± 2.2 | 1013.9 ± 2.2 | 1002.4 ± 2.2
